Values quoted from earlier work as cited in article PMC7395068, “The evolution of strategies to minimise the risk of human drug-induced liver injury (DILI) in drug discovery and development” (Archives of Toxicology, 2020).
Like-named read-outs stand apart in the source and are kept apart here. *1 amine or outer side, *2 acyl side, *3 side chain or, on linkers, in order; H or OH if unused. Where a SMILES comes first, the peptide text is derived from it. Bridges are numbered along the chain shown (N, C = ends). [ ]: non-standard residue; d: D form. The star is where a group is joined. hTyr(3S-OH,4S-OH,3'-OSO3H) = N[C@H](C(=O)O)[C@H](O)[C@@H](O)c1ccc(O)c(OS(=O)(=O)O)c1; Orn(4R-OH,5R-OH) = O=C([C@H](C[C@@H](O)[C@@H](O)N[*:3])N[*:1])[*:2]; Pro(3S-OH,4S-Me) = C[C@H]1CN[C@H](C(=O)O)[C@H]1O; X1 = CCCCCOc1ccc(-c2cc(-c3ccc(C(=O)*)cc3)no2)cc1; Gln(3R-OH) = NC(=O)C[C@@H](O)[C@H](N)C(=O)O; Hyp = O=C(O)[C@@H]1C[C@@H](O)CN1

Settings: cited from earlier work
[1] = binary in vivo human DILI call, ref Chen 2016
[2] = human DILI, LTKB DILIrank category, ref Chen 2016
[3] = LTKB DILIrank category, ref Chen 2016
[4] = binary human DILI assignment, ref Chen 2016
[5] = binary in vivo DILI call given beside the severity category, ref Chen 2016
[6] = human DILI concern category (LTKB DILIrank), ref Chen 2016
[7] = binary DILI call, ref Chen 2016

In the case of `CC(C)C(=O)Oc1ccc(CO)cc1[C@H](CCN(C(C)C)C(C)C)c1ccccc1` [fesoterodine], the “DILI +VE (5-8), DILI -VE (-4)” value [1] is given as “-VE” and the DILI severity category [2] is given as “vNo-DILI-Concern”.

In the case of abatacept, the “DILI +VE (5-8), DILI -VE (-4)” value (in vivo) is given as “+VE” and the DILI severity category (in vivo) is given as “vLess-DILI-Concern”.

In the case of `CNC1=Nc2ccc(Cl)cc2C(c2ccccc2)=[N+]([O-])C1` [chlordiazepoxide], the “DILI +VE (5-8), DILI -VE (-4)” value (in vivo) is listed as “+VE” and the DILI severity category (in vivo) is listed as “vLess-DILI-Concern”.

For `CC1=C(/C=C/C(C)=C/C=C/C(C)=C/CO)C(C)(C)CCC1` [vitamin a], the DILI severity category [3] is given as “vLess-DILI-Concern” and the “DILI +VE (5-8), DILI -VE (-4)” value [4] is given as “+VE”.

In the case of `CC(O)C(=O)[O-].[Na+]` (stereo not drawn) [sodium lactate], the “DILI +VE (5-8), DILI -VE (-4)” value (in vivo) is given as “-VE” and the DILI severity category (in vivo) is given as “vNo-DILI-Concern”.

In the case of `CC(C)C[C@H](NC(=O)[C@@H](COC(C)(C)C)NC(=O)[C@H](Cc1ccc(O)cc1)NC(=O)[C@H](CO)NC(=O)[C@H](Cc1c[nH]c2ccccc12)NC(=O)[C@H](Cc1cnc[nH]1)NC(=O)[C@@H]1CCC(=O)N1)C(=O)N[C@@H](CCCNC(=N)N)C(=O)N1CCC[C@H]1C(=O)NNC(N)=O` [goserelin], the “DILI +VE (5-8), DILI -VE (-4)” value [1] is given as “-VE” and the DILI severity category [2] is given as “Ambiguous DILI-concern”.

For `N[C@@H](Cc1cc(I)c(Oc2cc(I)c(O)c(I)c2)c(I)c1)C(=O)O` [levothyroxine], the “DILI +VE (5-8), DILI -VE (-4)” value [1] is listed as “+VE” and the DILI severity category [2] is listed as “vLess-DILI-Concern”.

For `C1N2CN3CN1CN(C2)C3` [methenamine hippurate], the “DILI +VE (5-8), DILI -VE (-4)” value [5] is given as “-VE” and the DILI severity category [6] is given as “Ambiguous DILI-concern”.

In the case of asparaginase, the “DILI +VE (5-8), DILI -VE (-4)” value (in vivo) is given as “+VE” and the DILI severity category (in vivo) is given as “vMost-DILI-Concern”.

For `O=C1Nc2ccc(Cl)cc2C(c2ccccc2)=NC1O` (stereo not drawn) [oxazepam], the “DILI +VE (5-8), DILI -VE (-4)” value (in vivo) is listed as “-VE” and the DILI severity category (in vivo) is listed as “Ambiguous DILI-concern”.

For `CNS(=O)(=O)CCc1ccc2[nH]cc(C3CCN(C)CC3)c2c1` [naratriptan], the “DILI +VE (5-8), DILI -VE (-4)” value [5] is listed as “-VE” and the DILI severity category [6] is listed as “Ambiguous DILI-concern”.

In the case of `CC(C[N+](C)(C)C)OC(N)=O` (stereo not drawn) [bethanechol], the DILI severity category [3] is listed as “vNo-DILI-Concern” and the “DILI +VE (5-8), DILI -VE (-4)” value [7] is listed as “-VE”.

In the case of `CN(C)Cc1ccc(CSCCN/C(=C\[N+](=O)[O-])NCc2ccc3c(c2)OCO3)o1` [niperotidine], the “DILI +VE (5-8), DILI -VE (-4)” value [5] is listed as “+VE” and the DILI severity category [6] is listed as “vMost-DILI-Concern”.

For `Clc1ccc2c(c1)C(c1ccccc1)=NCc1nncn1-2` [estazolam], the “DILI +VE (5-8), DILI -VE (-4)” value [1] is listed as “-VE” and the DILI severity category [2] is listed as “vNo-DILI-Concern”.

For interferon beta-1b, the “DILI +VE (5-8), DILI -VE (-4)” value (in vivo) is listed as “+VE” and the DILI severity category (in vivo) is listed as “vMost-DILI-Concern”.

In the case of `CCN(CCO)CCCC(C)Nc1ccnc2cc(Cl)ccc12` (stereo not drawn) [hydroxychloroquine], the “DILI +VE (5-8), DILI -VE (-4)” value [1] is listed as “+VE” and the DILI severity category [2] is listed as “vLess-DILI-Concern”.

In the case of `Cc1nnc(SCC2=C(C(=O)O)N3C(=O)[C@@H](NC(=O)Cn4cnnn4)[C@H]3SC2)s1` [cefazolin], the “DILI +VE (5-8), DILI -VE (-4)” value (in vivo) is given as “+VE” and the DILI severity category (in vivo) is given as “vLess-DILI-Concern”.

For `O=C1Nc2ccccc2C1(c1ccc(O)cc1)c1ccc(O)cc1` [oxyphenisatin], the “DILI +VE (5-8), DILI -VE (-4)” value (in vivo) is listed as “+VE” and the DILI severity category (in vivo) is listed as “vMost-DILI-Concern”.

For `CC(=O)O[C@H]1C[C@@H]2CC[C@@H]3[C@H](CC[C@@]4(C)[C@H]3C[C@H]([N+]3(C)CCCCC3)[C@@H]4OC(C)=O)[C@@]2(C)C[C@@H]1[N+]1(C)CCCCC1` [pancuronium], the “DILI +VE (5-8), DILI -VE (-4)” value (in vivo) is given as “-VE” and the DILI severity category (in vivo) is given as “vNo-DILI-Concern”.

For `COc1c(C)c2c(c(O)c1C/C=C(\C)CCC(=O)O)C(=O)OC2` [mycophenolic acid], the “DILI +VE (5-8), DILI -VE (-4)” value [5] is given as “-VE” and the DILI severity category [6] is given as “Ambiguous DILI-concern”.

In the case of `CCCCCOc1ccc(-c2cc(-c3ccc(C(=O)N[C@H]4C[C@@H](O)[C@@H](O)NC(=O)[C@@H]5[C@@H](O)[C@@H](C)CN5C(=O)[C@H]([C@H](O)CC(N)=O)NC(=O)[C@H]([C@H](O)[C@@H](O)c5ccc(O)c(OS(=O)(=O)O)c5)NC(=O)[C@@H]5C[C@@H](O)CN5C(=O)[C@H]([C@@H](C)O)NC4=O)cc3)no2)cc1` [micafungin] (X1-[Orn(4R-OH,5R-OH)]T[Hyp][hTyr(3S-OH,4S-OH,3'-OSO3H)][Gln(3R-OH)][Pro(3S-OH,4S-Me)]; lactam 1-C), the “DILI +VE (5-8), DILI -VE (-4)” value [5] is given as “+VE” and the DILI severity category [6] is given as “vMost-DILI-Concern”.

In the case of epoetin alfa, the “DILI +VE (5-8), DILI -VE (-4)” value (in vivo) is listed as “-VE” and the DILI severity category (in vivo) is listed as “vNo-DILI-Concern”.

For `O=C(O)CCCc1ccccc1` [4-phenylbutyric acid], the DILI severity category [3] is given as “Ambiguous DILI-concern” and the “DILI +VE (5-8), DILI -VE (-4)” value [7] is given as “-VE”.

In the case of `CC[C@@H]([C@H](C)O)n1ncn(-c2ccc(N3CCN(c4ccc(OC[C@@H]5CO[C@@](Cn6cncn6)(c6ccc(F)cc6F)C5)cc4)CC3)cc2)c1=O` [posaconazole], the “DILI +VE (5-8), DILI -VE (-4)” value [5] is listed as “-VE” and the DILI severity category [6] is listed as “Ambiguous DILI-concern”.

For hyaluronidase, the “DILI +VE (5-8), DILI -VE (-4)” value (in vivo) is listed as “-VE” and the DILI severity category (in vivo) is listed as “vNo-DILI-Concern”.

In the case of `c1cnc2cc3c(cc2n1)[C@@H]1CNC[C@H]3C1` [varenicline], the DILI severity category [3] is listed as “vLess-DILI-Concern” and the “DILI +VE (5-8), DILI -VE (-4)” value [4] is listed as “+VE”.

For `C=CC1=C(C(=O)O)N2C(=O)[C@@H](NC(=O)/C(=N\O)c3csc(N)n3)[C@H]2SC1` [cefdinir], the DILI severity category [3] is listed as “vLess-DILI-Concern”.

For `CC1OC2(CS1)CN1CCC2CC1` (stereo not drawn) [cevimeline], the DILI severity category [3] is given as “Ambiguous DILI-concern” and the “DILI +VE (5-8), DILI -VE (-4)” value [7] is given as “-VE”.

For `O=C(O)c1cc(/N=N/c2ccc(O)c(C(=O)O)c2)ccc1O` [olsalazine], the “DILI +VE (5-8), DILI -VE (-4)” value [5] is given as “+VE” and the DILI severity category [6] is given as “vLess-DILI-Concern”.
